Each block holds one molecule with its values, some of them ahead of it.
What was measured:
Homo sapiens [1] = species on record: Homo sapiens; test: Inhibition of transglutaminase in human keratinocytes at 1 uM relative to control; format: cell-based
Rattus norvegicus [2] = species on record: Rattus norvegicus; test: Inhibition of retinal reductase in Sprague-Dawley rat liver microsomes at 100 uM using all-trans retinaldehyde and NADPH by HPLC analysis relative to control
Homo sapiens [3] = species on record: Homo sapiens; test: Inhibition of transglutaminase in human keratinocytes assessed as mean transglutaminase activity level at 3 10^-5M in presence of 10 uM retinal relative to retinal alone; format: cell-based; design: scale not given: the % may be the effect or the level left
Homo sapiens [4] = species on record: Homo sapiens; test: Inhibition of transglutaminase in human keratinocytes assessed as mean transglutaminase activity level at 1 10^-5M in presence of 10 uM retinal relative to retinal alone; format: cell-based; design: scale not given: the % may be the effect or the level left
Homo sapiens [5] = species on record: Homo sapiens; test: Inhibition of transglutaminase in human keratinocytes assessed as mean transglutaminase activity level at 3.3 10^-6M in presence of 10 uM retinal relative to retinal alone; format: cell-based; design: scale not given: the % may be the effect or the level left
Homo sapiens [6] = species on record: Homo sapiens; test: Inhibition of transglutaminase in human keratinocytes assessed as mean transglutaminase activity level at 1.1 10^-6M in presence of 10 uM retinal relative to retinal alone; format: cell-based; design: scale not given: the % may be the effect or the level left
Homo sapiens [7] = species on record: Homo sapiens; test: Inhibition of transglutaminase in human keratinocytes assessed as mean transglutaminase activity level at 3.73 10^-7M in presence of 10 uM retinal relative to retinal alone; format: cell-based; design: scale not given: the % may be the effect or the level left
Homo sapiens [8] = species on record: Homo sapiens; test: Inhibition of transglutaminase in human keratinocytes assessed as mean transglutaminase activity level at 1.23 10^-7M in presence of 10 uM retinal relative to retinal alone; format: cell-based; design: scale not given: the % may be the effect or the level left
Homo sapiens [9] = species on record: Homo sapiens; test: Inhibition of transglutaminase in human keratinocytes assessed as mean transglutaminase activity level at 4.1 10^-8M in presence of 10 uM retinal relative to retinal alone; format: cell-based; design: scale not given: the % may be the effect or the level left
Homo sapiens [10] = species on record: Homo sapiens; test: Inhibition of transglutaminase in human keratinocytes assessed as mean transglutaminase activity level at 8.2 10^-8M in presence of 10 uM retinal relative to retinal alone; format: cell-based; design: scale not given: the % may be the effect or the level left
Homo sapiens [11] = species on record: Homo sapiens; test: Inhibition of transglutaminase in human keratinocytes assessed as mean transglutaminase activity level at 1.65 10^-9M in presence of 10 uM retinal relative to retinal alone; format: cell-based; design: scale not given: the % may be the effect or the level left
Homo sapiens [12] = species on record: Homo sapiens; test: Inhibition of transglutaminase in human keratinocytes assessed as mean transglutaminase activity level at 3.29 10^-9M in presence of 10 uM retinal relative to retinal alone; format: cell-based; design: scale not given: the % may be the effect or the level left
Homo sapiens [13] = species on record: Homo sapiens
Rattus norvegicus [14] = species on record: Rattus norvegicus; test: Activation of retinol dehydrogenase in Sprague-Dawley rat liver microsomes assessed as increase in enzyme activity at 100 uM using all-trans retinol and NADP by HPLC analysis relative to control
Homo sapiens [15] = species on record: Homo sapiens; test: Inhibition of transglutaminase in human keratinocytes assessed as mean transglutaminase activity level at 4.4 10^-5M in presence of 10 uM retinal relative to retinal alone; format: cell-based; design: scale not given: the % may be the effect or the level left
Homo sapiens [16] = species on record: Homo sapiens; test: Inhibition of transglutaminase in human keratinocytes assessed as mean transglutaminase activity level at 1.47 10^-5M in presence of 10 uM retinal relative to retinal alone; format: cell-based; design: scale not given: the % may be the effect or the level left
Homo sapiens [17] = species on record: Homo sapiens; test: Inhibition of transglutaminase in human keratinocytes assessed as mean transglutaminase activity level at 4.89 10^-6M in presence of 10 uM retinal relative to retinal alone; format: cell-based; design: scale not given: the % may be the effect or the level left
Homo sapiens [18] = species on record: Homo sapiens; test: Inhibition of transglutaminase in human keratinocytes assessed as mean transglutaminase activity level at 1.63 10^-6M in presence of 10 uM retinal relative to retinal alone; format: cell-based; design: scale not given: the % may be the effect or the level left
Homo sapiens [19] = species on record: Homo sapiens; test: Inhibition of transglutaminase in human keratinocytes assessed as mean transglutaminase activity level at 5.43 10^-7M in presence of 10 uM retinal relative to retinal alone; format: cell-based; design: scale not given: the % may be the effect or the level left
Homo sapiens [20] = species on record: Homo sapiens; test: Inhibition of transglutaminase in human keratinocytes assessed as mean transglutaminase activity level at 1.8 10^-7M in presence of 10 uM retinal relative to retinal alone; format: cell-based; design: scale not given: the % may be the effect or the level left
Homo sapiens [21] = species on record: Homo sapiens; test: Inhibition of transglutaminase in human keratinocytes assessed as mean transglutaminase activity level at 6 10^-8M in presence of 10 uM retinal relative to retinal alone; format: cell-based; design: scale not given: the % may be the effect or the level left
Homo sapiens [22] = species on record: Homo sapiens; test: Inhibition of transglutaminase in human keratinocytes assessed as mean transglutaminase activity level at 1.2 10^-8M in presence of 10 uM retinal relative to retinal alone; format: cell-based; design: scale not given: the % may be the effect or the level left
Homo sapiens [23] = species on record: Homo sapiens; test: Inhibition of transglutaminase in human keratinocytes assessed as mean transglutaminase activity level at 2.4 10^-9M in presence of 10 uM retinal relative to retinal alone; format: cell-based; design: scale not given: the % may be the effect or the level left
Homo sapiens [24] = species on record: Homo sapiens; test: Inhibition of transglutaminase in human keratinocytes assessed as mean transglutaminase activity level at 1.0 10^-3M in presence of 10 uM retinal relative to retinal alone; format: cell-based; design: scale not given: the % may be the effect or the level left
Homo sapiens [25] = species on record: Homo sapiens; test: Inhibition of transglutaminase in human keratinocytes assessed as mean transglutaminase activity level at 1.1 10^-4M in presence of 10 uM retinal relative to retinal alone; format: cell-based; design: scale not given: the % may be the effect or the level left
Homo sapiens [26] = species on record: Homo sapiens; test: Inhibition of transglutaminase in human keratinocytes assessed as mean transglutaminase activity level at 3.73 10^-4M in presence of 10 uM retinal relative to retinal alone; format: cell-based; design: scale not given: the % may be the effect or the level left
Homo sapiens [27] = species on record: Homo sapiens; test: Inhibition of transglutaminase in human keratinocytes assessed as mean transglutaminase activity level at 4.1 10^-5M in presence of 10 uM retinal relative to retinal alone; format: cell-based; design: scale not given: the % may be the effect or the level left
Homo sapiens [28] = species on record: Homo sapiens; test: Inhibition of transglutaminase in human keratinocytes assessed as mean transglutaminase activity level at 8.2 10^-6M in presence of 10 uM retinal relative to retinal alone; format: cell-based; design: scale not given: the % may be the effect or the level left
Homo sapiens [29] = species on record: Homo sapiens; test: Inhibition of transglutaminase in human keratinocytes assessed as mean transglutaminase activity level at 1.65 10^-7M in presence of 10 uM retinal relative to retinal alone; format: cell-based; design: scale not given: the % may be the effect or the level left
Homo sapiens [30] = species on record: Homo sapiens; test: Inhibition of transglutaminase in human keratinocytes assessed as mean transglutaminase activity level at 3.29 10^-7M in presence of 10 uM retinal relative to retinal alone; format: cell-based; design: scale not given: the % may be the effect or the level left
[31] = target: T1, Cellular retinoic acid-binding protein 2 (Homo sapiens) (UniProt P29373); test: Inhibition of radioactive all-trans retinoic acid binding to CRABP2 (unknown origin) expressed in Escherichia coli BLR(DE3)pLys incubated for 1 hr by scintillation counting assay; conditions: concentration not given here
T1 sequence (whole entry): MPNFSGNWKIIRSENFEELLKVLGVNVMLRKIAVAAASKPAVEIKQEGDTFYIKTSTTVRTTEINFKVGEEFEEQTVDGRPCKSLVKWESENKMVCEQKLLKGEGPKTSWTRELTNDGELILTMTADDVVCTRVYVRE

Homo sapiens [32] = species on record: Homo sapiens; test: Inhibition of transglutaminase in human keratinocytes assessed as mean transglutaminase activity level at 1.23 10^-5M in presence of 10 uM retinal relative to retinal alone; format: cell-based; design: scale not given: the % may be the effect or the level left
Homo sapiens [33] = species on record: Homo sapiens; test: Inhibition of transglutaminase in human keratinocytes assessed as mean transglutaminase activity level at 5.0 10^-8M in presence of 10 uM retinal relative to retinal alone; format: cell-based; design: scale not given: the % may be the effect or the level left
Homo sapiens [34] = species on record: Homo sapiens; test: Inhibition of transglutaminase in human keratinocytes assessed as mean transglutaminase activity level at 1.1 10^-8M in presence of 10 uM retinal relative to retinal alone; format: cell-based; design: scale not given: the % may be the effect or the level left
Homo sapiens [35] = species on record: Homo sapiens; test: Inhibition of transglutaminase in human keratinocytes assessed as mean transglutaminase activity level at 9.0 10^-3M in presence of 10 uM retinal relative to retinal alone; format: cell-based; design: scale not given: the % may be the effect or the level left
Homo sapiens [36] = species on record: Homo sapiens; test: Inhibition of transglutaminase in human keratinocytes assessed as mean transglutaminase activity level at 3.0 10^-3M in presence of 10 uM retinal relative to retinal alone; format: cell-based; design: scale not given: the % may be the effect or the level left

Structure (SMILES): CC1=C(/C=C/C(C)=C/C=C/C(C)=C/C=O)C(C)(C)CCC1
inhibition (Homo sapiens [1]): 55%

Structure (SMILES): CC1(C)[C@@H](O)CC[C@]2(C)[C@H]3C(=O)C=C4[C@@H]5C[C@@](C)(C(=O)O)CC[C@]5(C)CC[C@@]4(C)[C@]3(C)CC[C@@H]12
inhibition (Rattus norvegicus [2]): 38%
Activity (Homo sapiens [3]): -0.3%
Activity (Homo sapiens [4]): 0.7%
Activity (Homo sapiens [5]): 2.5%
Activity (Homo sapiens [6]): 96.4%
Activity (Homo sapiens [7]): 120%
Activity (Homo sapiens [8]): 112%
Activity (Homo sapiens [9]): 93%
Activity (Homo sapiens [10]): 225%
Activity (Homo sapiens [11]): 103%
Activity (Homo sapiens [12]): 100%
IC20 (Homo sapiens [13]): 5.96 ×10⁻⁶ M

Structure (SMILES): CCCCCCCC/C=C\CCCCCCCC(=O)OC[C@H](COP(=O)([O-])OCC[N+](C)(C)C)OC(=O)CCCCCCCCCCCCCCC
Activity (Rattus norvegicus [14]): 21%
Activity (Homo sapiens [15]): 90.9%
Activity (Homo sapiens [16]): 120%
Activity (Homo sapiens [17]): 70.1%
Activity (Homo sapiens [18]): 98.8%
Activity (Homo sapiens [19]): 86.7%
Activity (Homo sapiens [20]): 75.9%
Activity (Homo sapiens [21]): 87.8%
Activity (Homo sapiens [22]): 159%
Activity (Homo sapiens [23]): 85.5%

Structure (SMILES): CC1(C)[C@@H](OC(=O)CCC(=O)O)CC[C@]2(C)[C@H]3C(=O)C=C4[C@@H]5C[C@@](C)(C(=O)O)CC[C@]5(C)CC[C@@]4(C)[C@]3(C)CC[C@@H]12
inhibition (Rattus norvegicus [2]): 26%
Activity (Homo sapiens [3]): -7.1%
Activity (Homo sapiens [4]): 27.3%
Activity (Homo sapiens [5]): 51.7%
Activity (Homo sapiens [6]): 158%
Activity (Homo sapiens [7]): 126%
Activity (Homo sapiens [8]): 81%
Activity (Homo sapiens [9]): 135%
Activity (Homo sapiens [10]): 112%
Activity (Homo sapiens [11]): 77.8%
Activity (Homo sapiens [12]): 64%
IC20 (Homo sapiens [13]): 2 ×10⁻⁷ M

Continued, in another order:

Activity (Homo sapiens [24]): -2%
Activity (Homo sapiens [25]): -8%
Activity (Homo sapiens [26]): -6%
Activity (Homo sapiens [27]): 75.1%
Activity (Homo sapiens [28]): 74.2%
Activity (Homo sapiens [29]): 88.9%
Activity (Homo sapiens [30]): 101%
Structure (SMILES): CCCCCCCCCCCCCC(=O)O
IC20 (Homo sapiens [13]): 1.05 ×10⁻⁵ M

inhibition [31]: > 50%
Activity (Homo sapiens [25]): 14.2%
Activity (Homo sapiens [26]): 43.4%
Activity (Homo sapiens [32]): 130%
Activity (Homo sapiens [27]): 105%
Activity (Homo sapiens [28]): 114%
Activity (Homo sapiens [29]): 95%
Activity (Homo sapiens [33]): 74%
Activity (Homo sapiens [34]): 70%
Structure (SMILES): O=C(O)CCCCCCCCCCCCCCC(=O)O
IC20 (Homo sapiens [13]): 8.4 ×10⁻⁵ M

inhibition (Rattus norvegicus [2]): 62%
Activity (Homo sapiens [35]): -6%
Activity (Homo sapiens [36]): 0.1%
Activity (Homo sapiens [24]): -16.4%
Activity (Homo sapiens [25]): 4.4%
Activity (Homo sapiens [26]): 79.2%
Activity (Homo sapiens [32]): 62.6%
Activity (Homo sapiens [27]): 76.8%
Activity (Homo sapiens [28]): 146%
Activity (Homo sapiens [29]): 106%
Activity (Homo sapiens [30]): 60.2%
Structure (SMILES): CCCCC/C=C\C/C=C\CCCCCCCC(=O)O
IC20 (Homo sapiens [13]): 8.95 ×10⁻⁵ M

— ChEMBL document CHEMBL4420071, “Method for treating skin with retinoids and retinoid boosters” (2013)
